This experiment addresses T1, human A2B adenosine receptor (Homo sapiens, UniProt P29275).
T1 construct: expressed in transfected cells
T1 sequence (P29275 1-332): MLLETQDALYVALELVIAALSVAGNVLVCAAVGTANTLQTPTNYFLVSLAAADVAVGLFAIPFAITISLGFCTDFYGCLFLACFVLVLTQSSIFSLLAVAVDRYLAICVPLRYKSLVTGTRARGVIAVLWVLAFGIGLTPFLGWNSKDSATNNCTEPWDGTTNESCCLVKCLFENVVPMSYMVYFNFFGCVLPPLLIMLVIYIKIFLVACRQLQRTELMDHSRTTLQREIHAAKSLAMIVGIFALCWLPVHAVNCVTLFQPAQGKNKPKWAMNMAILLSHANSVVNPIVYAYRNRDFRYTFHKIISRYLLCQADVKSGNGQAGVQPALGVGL
Nature of the experiment: Binding constants against cloned and expressed human adenosine receptor subtypes (A2B). The following applies: read-out: Binding constant (KD) A2B. An excerpt: Any A2B adenosine receptor antagonist can be used according to the present methods. Methods for determining whether a compound is an A2B adenosine receptor agonist or antagonist involve quantitating its binding affinity to membranes which are known to contain the A2B subtype. The methods for determining whether compounds are specific ligands of different adenosine receptor subtypes will be known by practitioners of the art. […] References cited therein provide more complete descriptions of the procedures used.
In these previous methods, a radioactive compound (DPCPX) known to be highly specific for A1 adenosine receptors and whose KD is published was incubated with isolated fat cell membranes. A1 adenosine receptors are abundant in fat cells and DPCPX's binding to fat cell membranes occurs due to those receptors. […] Human cells which express large amounts of human A2B adenosine receptors are not readily available. Therefore, in order to determine the KD of BWA1433 for the A2B adenosine receptor the cDNA of human A2B adenosine receptor was used to overexpress the A2B adenosine receptor in a mammalian cell line.

For orientation: Kd means the free concentration of one partner at which half of the binding sites on the other are occupied at equilibrium, for simple one-to-one binding. Consider `CCCn1c(=O)c2[nH]c(-c3ccc(C=CC(=O)O)cc3)nc2n(CCC)c1=O` [BWA1433, 1,3-dipropyl-8-(p-acrylic)phenylxanthine], for which the equilibrium dissociation constant (Kd) stood at 60 nM.

For the origin of these results see patent US6060481A, “Method for improving insulin sensitivity using an adenosine receptor antagonist” (priority 1999, dated 2000).
